{"source": "patent US9250238B2", "about": "“Pathogen detection” (priority 2010, dated 2016)", "key": {"Y. enterocolitica": {"test_system": "Y. enterocolitica", "test": "Capture on FOB-BSA micropatterned chips, darkfield and FFT", "assay_type": "binding, Yersinia enterocolitica", "details": "NHS-activated codelink slide, 10^8 cfu/ml"}, "peanut lectin": {"target": "T1, peanut lectin (Arachis hypogaea, UniProt P02872)", "T1 construct": "purchased Sigma (St. Louis, Mo.)", "T1 sequence (P02872 24-273)": "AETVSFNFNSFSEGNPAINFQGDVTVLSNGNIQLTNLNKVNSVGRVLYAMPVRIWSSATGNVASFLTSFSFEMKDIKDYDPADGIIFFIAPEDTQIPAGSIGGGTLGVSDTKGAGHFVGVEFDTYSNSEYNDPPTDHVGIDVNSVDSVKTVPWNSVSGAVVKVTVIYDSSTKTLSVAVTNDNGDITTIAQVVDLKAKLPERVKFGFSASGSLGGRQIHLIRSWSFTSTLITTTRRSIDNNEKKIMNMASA", "test": "Flow immunocytometry of peanut lectin binding to lactose-conjugated microspheres", "description": "Bishydrazide glycoconjugates can be directly attached onto surface-active substrates for the selective capture of lectins and subsequent binding immunoassays. For example, lactosebishydrazide 6 was attached onto NHS-activated latex microspheres in order to measure the binding affinity of peanut lectin by flow immunocytometry (Kd)) 50 nM), using a FITC-labeled secondary antibody for fluorescence detection (FIGS. 12A and 13). […] However, in some cases the use of carrier proteins such as BSA may be more convenient for surface functionalization by simple physisorption.\nFor flow cytometry, carboxylic acid functionalized microspheres were conjugated to lactose-bishydrazide 6 via standard EDC coupling for 16 hours at room temperature, followed by multiple washes with PBS. The lactose-conjugated microspheres were dispersed in PBS (1.2 mL) and split into several Eppendorf tubes, which were incubated with increasing concentrations of peanut lectin in the presence or absence of 100-fold excess lactose. After incubating for 2 hours at room temperature, tubes were rinsed and subjected to sequential incubation with anti-lectin rabbit IgG and anti-rabbit FITC IgG as described above. The microspheres were then analyzed for fluorescent immunolabeling using a flow cytometer (Cytomics F500, Beckman Coulter, 10^4 microspheres/sample). […]"}, "Staphylococcus aureus": {"test_system": "Staphylococcus aureus", "test": "PathoChip detection sensitivity", "assay_type": "binding", "details": "ligand conjugated to BSA"}, "Streptococcus pneumonaie": {"test_system": "Streptococcus pneumonaie", "test": "PathoChip detection sensitivity", "assay_type": "binding", "details": "ligand conjugated to BSA"}, "Vibrio cholerae": {"test_system": "Vibrio cholerae", "test": "PathoChip detection sensitivity", "assay_type": "binding", "details": "ligand conjugated to BSA"}, "Pseudomonas aeruginosa [1]": {"test_system": "Pseudomonas aeruginosa", "test": "PathoChip detection sensitivity", "assay_type": "binding", "details": "ligand conjugated to BSA"}, "Pseudomonas aeruginosa [2]": {"test_system": "Pseudomonas aeruginosa", "test": "Capture of Pseudomonas on glycan-patterned substrates, darkfield and FFT", "assay_type": "binding", "text": "A similar approach was used to generate photopatterned arrays of the pulmonary trisaccharide and 2′-fucosyllactose on BSA-coated substrates, using glycan-bishydrazide-ANB conjugates 16 and 17, respectively. These micropatterned substrates were exposed to the opportunistic pathogen Pseudomonas aeruginosa at 10^6-10^8 cfu/mL, then washed and imaged by optical darkfield microscopy to visualize patterns of glycan-immobilized bacteria in a label-free manner (FIGS. 15-17). […] Furthermore, only live Pseudomonas were captured by the trisaccharide ligands; exposing the bacteria to UV irradiation for 2 hours prior to their introduction resulted again in no observable pattern (FIG. 18). […]\nGlycan-bishydrazide conjugates could also be patterned onto substrates by microcontact printing (μCP), a well-established “soft lithography” technique based on microfabricated polydimethylsiloxane (PDMS) stamps for the physical transfer of organic or biomolecular ligands, including glycans (Kumar and Whitesides, Appl. Phys. Lett. 1993, 63:2002-2004; Bernard et al., Adv. Mater. 2000, 12:1067-1070; Inerowicz et al., Langmuir 2002, 18:5263-5268; Godula et al., Angew. Chem., Int. Ed 2009, 48:4973-4976; Wendeln et al., Langmuir 2010, 26:4933-4940). […] The substrates were blocked then exposed for 1 hour to Pseudomonas at 10^2-10^8 cfu/mL, then evaluated for evidence of patterned pathogen capture (FIGS. 19, 19A). […]"}, "Chlamydia trachomatis": {"test_system": "Chlamydia trachomatis", "test": "PathoChip detection sensitivity", "assay_type": "binding", "details": "ligand conjugated to BSA"}, "Mycobacterium smegmatis": {"test_system": "Mycobacterium smegmatis", "test": "PathoChip detection sensitivity", "assay_type": "binding", "details": "ligand conjugated to BSA"}, "Acinetobacter baumanii": {"test_system": "Acinetobacter baumanii", "test": "PathoChip detection sensitivity", "assay_type": "binding", "details": "ligand conjugated to BSA"}, "Shigella spp.": {"test_system": "Shigella spp.", "test": "PathoChip detection sensitivity", "assay_type": "binding", "details": "ligand conjugated to BSA"}}, "data": [{"compound": "CC(=O)N([O-])CCCCCNC(=O)CCC(=O)N([O-])CCCCCNC(=O)CCC(=O)N([O-])CCCCCN.[Fe+3]", "note": "[FOB, ferrioxamine]", "values": [{"measurement": "bacteria binding with ligand attached directly, no BSA linker", "setting": "Y. enterocolitica", "value": "less bacteria binding onto the pattern than in the presence of BSA"}]}, {"compound": "NNC(=O)COCCOCCOCCOCCOCCOCCOCC(=O)NN[C@@H]1OC(CO)[C@@H](OC2OC(CO)[C@H](O)[C@H](O)[C@@H]2O)[C@H](O)C1O", "note": "(stereo partly shown) [conjugate 6, Hexa(ethylene glycol)-linked lactose-bishydrazide conjugate]", "values": [{"measurement": "Kd", "setting": "peanut lectin; 6 attached to NHS-activated latex microspheres, FITC secondary antibody", "value": 50, "unit": "nM"}, {"measurement": "increase of Kd in competition assay", "setting": "peanut lectin; against 1 mM lactose", "value": 10, "unit": "fold"}]}, {"compound": "Hemin", "values": [{"measurement": "sensitivity, Staphylococcus aureus", "setting": "Staphylococcus aureus", "value": "1E3", "unit": "cfu/mL"}, {"measurement": "sensitivity, Streptococcus pneumonaie", "setting": "Streptococcus pneumonaie", "value": "1E5", "unit": "cfu/mL"}, {"measurement": "sensitivity, Vibrio cholerae", "setting": "Vibrio cholerae", "value": "1E6/1E6 cfu/mL"}, {"measurement": "sensitivity, Pseudomonas aeruginosa", "setting": "Pseudomonas aeruginosa [1]", "value": "1E3", "unit": "cfu/mL"}]}, {"compound": "Hexa(ethylene glycol)-Linked 2′-Fucosyllactose-Bishydrazide Conjugate [conjugate 8]", "values": [{"measurement": "avidity of Pseudomonas cultures relative to pulmonary trisaccharide 7", "setting": "Pseudomonas aeruginosa [2]", "value": "much lower avidity"}]}, {"compound": "heparin", "values": [{"measurement": "sensitivity, Chlamydia trachomatis", "setting": "Chlamydia trachomatis", "value": "1E3", "unit": "cfu/mL"}, {"measurement": "sensitivity, Chlamydia trachomatis", "setting": "Chlamydia trachomatis; listed as Heparin", "value": "10^3 cfu/mL"}, {"measurement": "sensitivity, Staphylococcus aureus", "setting": "Staphylococcus aureus", "value": "1E6", "unit": "cfu/mL"}, {"measurement": "sensitivity, Mycobacterium smegmatis", "setting": "Mycobacterium smegmatis", "value": "1E6", "unit": "cfu/mL"}, {"measurement": "sensitivity, Acinetobacter baumanii", "setting": "Acinetobacter baumanii", "value": "1E6", "unit": "cfu/mL"}, {"measurement": "sensitivity, Vibrio cholerae", "setting": "Vibrio cholerae", "value": "1E6+ cfu/mL"}, {"measurement": "sensitivity, Pseudomonas aeruginosa", "setting": "Pseudomonas aeruginosa [1]", "value": "1E6", "unit": "cfu/mL"}, {"measurement": "sensitivity, Shigella spp.", "setting": "Shigella spp.", "value": "1E6+ cfu/mL"}]}]}
